# Data: patent US9360484B2, “Anti-FcRH5 antibodies and immunoconjugates and methods of use” (Genentech, Inc., priority 2009, dated 2016)
# How the values were obtained:
# OPM2-FcRH5 tumors = test: Inhibition of in vivo tumor growth, OPM2-FcRH5 xenografts, hu10A8-MC-vc-PAB-MMAE alone and in combination with Velcade (Example 8, Table 14); set-up: species or system CB17 ICR SCID mice
# Description: (§1) Specifically, the ability of the antibody and Velcade® to regress tumors in OPM2 cells (Multiple myeloma cell line) stably transfected with human FcRH5 was examined. After transfection of linearized pRK.CMV.PD.nbe.FcRH5 into OPM2 cells and puromycin (Calbiochem, San Diego, Calif.) selection, surviving cells were separated for FcRH5 expressing cells with biotin (Pierce Biotechnology, Rockford, Il) labeled anti-FcRH5.7D11 and MACS anti-Biotin microbeads on an MACS LS column (Miltenyi Biotec, Auburn, Calif.).
# For analysis of efficacy of hu anti-FcRH5 10A8 conjugated with MC-vc-PAB-MMAE alone and in combination with Velcade®, female CB17 ICR SCID mice (6-8 weeks of age from Charles Rivers Laboratories; Hollister, Calif.) were inoculated subcutaneously with 2×10^7 OPM2-FcRH5 cells via injection into the flanks of CB17 ICR SCID mice and the xenograft tumors were allowed to grow to an average of 331 mm^3. Day 0 refers to the day the tumors were 172-511 mm^3 and when the first/or only dose of treatment was administered, unless indicated specifically below. Tumor volume was calculated based on two dimensions, measured using calipers, and was expressed in mm3 according to the formula: V=0.5a×b^2, where a and b are the long and the short diameters of the tumor, respectively. Data collected from each experimental group were expressed as mean±SE. Mice were randomized into nine groups of 9 mice each and dosed. Group 1 received a single intravenous (IV) injection of histidine buffer on Day 0 plus IV injections of 0.9% sodium chloride (saline) twice weekly for two weeks on Days 0, 3, 7, and 10 as a vehicle control. […] Group 3 received IV injections of 1 mg/kg Velcade® twice weekly for two weeks on Days 0, 3, 7, and 10. Group 4-5 received a single IV injection of 4 or 10 mg/kg thio hu anti-FcRH5(10A8)-HC-MC-vc-PAB-MMAE, CNJ 1465, respectively, on Day 0. […] Tumors were measured twice a week throughout the experiment. Body weights of mice were measured twice a week for the first three weeks. […] All animal protocols were approved by an Institutional Animal Care and Use Committee (IACUC).
# [1] = test system: OPM2-FcRH5 tumors (OPM2 multiple myeloma cells stably transfected with human FcRH5); test: OPM2-FcRH5 xenograft: Hu anti-FcRH5 10A8-SPDB-DM4 alone and in combination with Velcade; assay type: in vivo, CB17 ICR SCID mice
# Description: Specifically, the ability of the antibody and Velcade® to regress tumors in OPM2 cells (Multiple myeloma cell line) stably transfected with human FcRH5 was examined. After transfection of linearized […]5 into OPM2 cells and puromycin (Calbiochem, San Diego, Calif.) selection, surviving cells were separated for FcRH5 expressing cells with biotin (Pierce Biotechnology, Rockford, Il) labeled anti-FcRH5.7D11 and MACS anti-Biotin microbeads on an MACS LS column (Miltenyi Biotec, Auburn, Calif.). […] Data collected from each experimental group were expressed as mean±SE. Mice were randomized into six groups of 9 mice each and dosed. […] Group 2 received a single IV injection of histidine buffer on Day 0 plus IV injections of 0.9% sodium chloride (saline) twice weekly for two weeks on Days 0, 3, 7, and 10 as a vehicle control. […] Tumors were measured twice a week throughout the experiment. Body weights of mice were measured twice a week for the first three weeks. […] All animal protocols were approved by an Institutional Animal Care and Use Committee (IACUC).
# [2] = test system: OPM2-FcRH5 tumors (OPM2 multiple myeloma cells stably transfected with human FcRH5); test: OPM2-FcRH5 xenograft: Hu anti-FcRH5 10A8-MC-vc-PAB-MMAE in combination with Revlimid and Revlimid plus Dexamethasone; assay type: in vivo, CB17 ICR SCID mice; conditions: for CR (mice with Complete Remission: tumor volume dropped to 0 mm^3) / PR (mice with Partial Regression: tumor volume dropped below 50% of day 0) / TI (number of observable tumors at end of study): 38 day time course, ADC 6 mg/kg single IV day 0, Revlimid 50 mg/kg IP daily, Dexamethasone 3 mg/kg PO; for percent body weight change (FIG. 44): first 17 days
# Description: as §1, with “antibody in combination with Revlimid®” for “antibody”, “Revlimid® plus Dexamethasone” for “Velcade®”
# For analysis of efficacy of Hu anti-FcRH5 10A8 conjugated to -MC-vc-PAB-MMAE in combination with Revlimid® and Revlimid® plus Dexamethasone, female CB17 ICR SCID mice (6-8 weeks of age from Charles Rivers Laboratories; Hollister, Calif.) were inoculated subcutaneously with 2×10^7 OPM2-FcRH5 cells via injection into the flanks of CB17 ICR SCID mice and the xenograft tumors were allowed to grow to an average of 446 mm^3. Day 0 refers to the day the tumors were 263-630 mm^3 and when the first/or only dose of treatment was administered, unless indicated specifically below. Tumor volume was calculated based on two dimensions, measured using calipers, and was expressed in mm3 according to the formula: V=0.5a×b^2, where a and b are the long and the short diameters of the tumor, respectively. Data collected from each experimental group were expressed as mean+SE. Mice were randomized into nine groups of 8 mice each and dosed. Group 1 received daily intraperitoneal (IP) injections of a mixture of DMSO and MCT buffer on Days 0-13 as a vehicle control. […] Group 4 received daily IP injections of 50 mg/kg Revlimid® on Days 0-13. Group 5 received daily oral (PO) dosing of 3 mg/kg Dexamethasone for four days followed by three days off for two cycles on Days 0-3 and 7-10. Group 6 received daily IP injections of 50 mg/kg Revlimid® on Days 0-13 plus daily PO dosing of 3 mg/kg Dexamethasone for four days followed by three days off for two cycles on Days 0-3 and 7-10. […] Tumors were measured twice a week throughout the experiment. Body weights of mice were measured twice a week throughout the experiment. If mice experienced a body weight loss of greater than 15% compared to their body weight on Day 0, mice were weighed daily until weight regained or until body weight loss reached greater than 20%. […] All animal protocols were approved by an Institutional Animal Care and Use Committee (IACUC).
# BJAB-FcRH5 tumors = test: In vivo tumor cell killing assay, BJAB-FcRH5 xenografts (Example 4); set-up: species or system CB17 ICR SCID mice; conditions: unconjugated antibody, 10.8 mg/kg i.v. day 0 and day 7, 8 mice
# Description: To test the efficacy of various anti-FcRH5 antibodies, murine anti-human antibodies were conjugated to DM1 and the effect of the conjugated variant on tumors in mice were analyzed.
# Specifically, the ability of the antibodies to regress tumors in BJAB-luciferase cells (Burkitt's lymphoma cell line stably transfected with human FcRH5.
# After transfection of pRK.CMV.PD.nbe.FcRH5 into BJAB-luciferase cells and puromycin (Calbiochem, San Diego, Calif.) selection, surviving cells were FACS autocloned for mid range expressers with anti-FcRH5 antibodies (7D11). Post autoclone, the BJAB-luciferase cell line expressing FcRH5 most closely resembling plasma cell expression, as determined by FACS, was chosen by FACS analysis using anti-FcRH5 antibodies (7D11). As a negative control, BJAB-luciferase transfected, in the same manner, with the empty vector pRK.CMV.PD.nbe were used.
# For analysis of efficacy mouse antibodies, female CB17 ICR SCID mice (6-8 weeks of age from Charles Rivers Laboratories; Hollister, Calif.) were inoculated subcutaneously with 2×10^7 BJAB-FcRH5 cells via injection into the flanks of CB17 ICR SCID mice and the xenograft tumors were allowed to grow to an average of 128 mm^3. Day 0 refers to the day the tumors were an average of 100-250 mm^3 and when the first/or only dose of treatment was administered, unless indicated specifically below. Tumor volume was calculated based on two dimensions, measured using calipers, and was expressed in mm^3 according to the formula: V=0.5a×b^2, where a and b are the long and the short diameters of the tumor, respectively. Data collected from each experimental group were expressed as mean±SE. Groups of 8 mice were treated with a weekly intravenous (i.v.) dose of 400 μg of antibody-linked drug/m^2 mouse (corresponding to ˜8-10 mg ADC/kg of mouse) with anti-FcRH5 ADC or control antibody-drug conjugates at day 0 and day 7. Tumors were measured twice a week throughout the experiment. Body weights of mice were measured either once a week throughout the experiment. […]
# cynomolgus FcRH5 = test: Cyno cross-reactivity by FACS on stably transfected cells (SVT2 cells expressing cynoFcRH5); assay type: binding, cynomolgus monkey; set-up: key to Cyno X-reactivity (FACS) on stable transfected cells: X*: *Very slight at saturating concentration
# Description: For additional FACS analysis of FcRH5 antibodies, 1.0 μg, 0.1 μg or 0.01 μg of antibody was titrated per million cells of BJAB cells stably expressing huFcRH5 and SVT2 cells stably expressing cynoFcRH5. Briefly, approximately 10^6 cells in 100 μl were incubated with varying amounts (1.0 ug, 01. ug or 0.01 ug) of murine Ab mu1H4, mu6H1, mu7D11, mu9E2, mu10A8, mu10F5, or mu13G9 per million cells of BJAB cells stably expressing huFcRH5 and SVT2 cells stably expressing cynoFcRH5. Incubation with 1.0 ug/10^6 cells of the appropriate Mu IgG isotype control was used as a negative control. PE conjugated Rat anti-MuIgG1 or Rat anti-MuIgG2a+b was used as the secondary detection antibody.
# [3] = Velcade 1 mg/kg twice weekly for two weeks (Days 0, 3, 7, 10), OPM2-FcRH5 xenograft, CB17 ICR SCID mice
# [4] = 37 day time course, ADC 4 mg/kg single IV day 0, Velcade 1 mg/kg IV days 0, 3, 7, 10
# Sequence of cynomolgus FcRH5 (as listed by the source): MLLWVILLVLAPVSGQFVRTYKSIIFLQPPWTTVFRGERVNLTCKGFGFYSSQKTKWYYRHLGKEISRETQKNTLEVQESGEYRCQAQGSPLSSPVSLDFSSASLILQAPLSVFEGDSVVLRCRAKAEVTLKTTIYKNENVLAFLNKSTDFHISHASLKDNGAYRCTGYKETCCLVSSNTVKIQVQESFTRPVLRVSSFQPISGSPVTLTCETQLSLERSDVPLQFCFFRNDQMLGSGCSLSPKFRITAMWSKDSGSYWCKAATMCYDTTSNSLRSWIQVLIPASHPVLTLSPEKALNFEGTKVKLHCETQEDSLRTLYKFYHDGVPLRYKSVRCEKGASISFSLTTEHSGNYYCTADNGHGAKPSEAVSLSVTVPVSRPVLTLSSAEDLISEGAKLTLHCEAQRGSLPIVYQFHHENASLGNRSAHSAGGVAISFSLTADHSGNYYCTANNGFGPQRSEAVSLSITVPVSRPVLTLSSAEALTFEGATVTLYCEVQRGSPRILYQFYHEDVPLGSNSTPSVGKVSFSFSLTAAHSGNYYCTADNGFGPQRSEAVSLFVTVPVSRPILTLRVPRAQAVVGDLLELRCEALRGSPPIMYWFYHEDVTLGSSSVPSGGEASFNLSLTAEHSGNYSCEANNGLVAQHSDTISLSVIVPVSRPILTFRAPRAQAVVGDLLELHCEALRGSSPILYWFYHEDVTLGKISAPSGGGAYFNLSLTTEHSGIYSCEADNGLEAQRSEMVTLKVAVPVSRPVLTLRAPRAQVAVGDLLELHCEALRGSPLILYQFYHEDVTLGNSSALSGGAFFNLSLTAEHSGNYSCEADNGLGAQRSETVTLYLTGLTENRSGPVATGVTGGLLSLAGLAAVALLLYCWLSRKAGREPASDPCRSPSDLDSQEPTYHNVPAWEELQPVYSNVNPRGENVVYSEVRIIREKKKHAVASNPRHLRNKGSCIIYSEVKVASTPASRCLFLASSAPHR
molecule,measurement,setting,value
CC(C)C[C@H](NC(=O)[C@H](Cc1ccccc1)NC(=O)c1cnccn1)B(O)O [Velcade ®],CR (Complete Remission; number of mice with tumor volume dropped to 0 mm^3),OPM2-FcRH5 tumors; [3],0
same,PR (Partial Regression; number of mice with tumor volume below 50% of day 0 volume),OPM2-FcRH5 tumors; [3],0
same,TI (number of observable tumors at end of study),OPM2-FcRH5 tumors; [3],9/9
same,CR (mice with Complete Remission: tumor volume dropped to 0 mm^3),[1]; [4],0
same,PR (mice with Partial Regression: tumor volume dropped below 50% of day 0),[1]; [4],0
same,TI (number of observable tumors at end of study),[1]; [4],8/8
"CC(C)C[C@H](NC(=O)[C@H](Cc1ccccc1)NC(=O)c1cnccn1)B(O)O [Velcade®, bortezomib]",percent body weight change,"OPM2-FcRH5 tumors; first 24 days, 1 mg/kg IV twice weekly for two weeks","caused a decrease in body weight or weight loss through the duration of treatment, but weight rebounded after dosing was complete"
same,percent body weight change (FIG. 42),[1]; first 21 days,did not cause a significant decrease in body weight or weight loss
"Nc1cccc2c1CN(C1CCC(=O)NC1=O)C2=O (stereo not drawn) [Revlimid, lenalidomide]",CR (mice with Complete Remission: tumor volume dropped to 0 mm^3),[2],0
same,PR (mice with Partial Regression: tumor volume dropped below 50% of day 0),[2],0
same,TI (number of observable tumors at end of study),[2],4/4
same,percent body weight change (FIG. 44),[2],caused a significant decrease in body weight or weight loss
C[C@@H]1C[C@H]2[C@@H]3CCC4=CC(=O)C=C[C@]4(C)[C@@]3(F)[C@@H](O)C[C@]2(C)[C@@]1(O)C(=O)CO [Dexamethasone],CR (mice with Complete Remission: tumor volume dropped to 0 mm^3),[2],0
same,PR (mice with Partial Regression: tumor volume dropped below 50% of day 0),[2],0
same,TI (number of observable tumors at end of study),[2],5/5
same,percent body weight change (FIG. 44),[2],caused a significant decrease in body weight or weight loss
"7D11: murine monoclonal antibody binding human FcRH5 (antibody, V domains shown) VH: EVQLVESGGGLVQPGGSLKLSCAASGFTFSSYGMSWVRQTPDKRLELVATITRNGGTTYYLDSVKGRFTISRDNAKNTLYLQMSSLKSEDTAMYYCARGPIYYDYGYAMDYWGQGTTVTVSS VL: DILLTQSPAILSVSPGERVSFSCRSSQSIGTNIHWYQQRTNGSPRLLIKFASESLSGIPSRFSGSGSGTDFTLSINSVESEDFADYYCQQSNSWPLTFGAGTKVEIK","CR (Complete Remission, number of mice)",BJAB-FcRH5 tumors,0
same,"PR (Partial Regression, number of mice)",BJAB-FcRH5 tumors,0
same,TI (number of observable tumors at end of study),BJAB-FcRH5 tumors,8/8
same,Cyno X-reactivity (FACS) on stable transfected cells,cynomolgus FcRH5,X*
same,cross reaction with cynomolgus FcRH5 by FACS analysis,"cynomolgus FcRH5; 1.0, 0.1 or 0.01 μg antibody per million SVT2 cells stably expressing cynoFcRH5",cross react with cynomolgus FcRH5
